# In PMC8374649, “IBI362 (LY3305677), a weekly-dose GLP-1 and glucagon receptor dual agonist, in Chinese adults with overweight or obesity: A randomised, placebo-controlled, multiple ascending dose phase 1b study” (EClinicalMedicine, 2021):
# Test system: Chinese adults with overweight or obesity
# Test: Safety and tolerability (treatment emergent adverse events), multiple ascending dose phase 1b study
# Format: in vivo, human
# Description: The study included a 3-week screening period, a 12-week treatment period and an 8-week safety follow-up period. During the 12-week treatment period, the dose of IBI362 or placebo was escalated within each cohort according to one of the three dose-escalation schedules (Fig. S1). The dose-escalation regimen for the 3.0 mg cohort was 1.0 mg for 4 weeks, followed by 2.0 mg for 4 weeks and then 3.0 mg for the final 4 weeks. The dose-escalation regimen for the 4.5 mg cohort was 1.5 mg for 4 weeks, followed by 3.0 mg for 4 weeks and then 4.5 mg for the final 4 weeks. The dose-escalation regimen for the 6.0 mg cohort was 2.0 mg for 4 weeks, followed by 4.0 mg for 4 weeks and then 6.0 mg for the final 4 weeks. The 6.0 mg cohort started dosing after tolerability evaluation of 1.5 mg dosing in the 4.5 mg cohort. The internal unblinded safety monitoring group was responsible for the safety monitoring. All treatments were subcutaneously administered once a week. Investigators and authorized study personnel in each centre recorded the study data into the electronic case report forms (eCRFs), which were reviewed and validated by clinical research associates (CRAs). The data in the eCRFs were submitted to the electronic data capture (EDC) database. HbA1c, fasting plasma glucose and fasting insulin tests were performed in a central lab (Wuxi AppTec Inc.).
# The primary endpoints of the study were safety and tolerability of IBI362. Adverse events (AEs) were categorised according to the Medical Dictionary for Regulatory Activities system organ class and preferred terms. Treatment emergent adverse events (TEAEs) and serious adverse events were monitored in all participants throughout the treatment period and the safety follow-up period. The severity of the AEs (mild, moderate or severe) and the association between an AE and the study drug was assessed by investigators based on pre-specified criteria.
# Safety analyses were done in the safety population (defined as all participants who received at least one dose of the study treatment). Pharmacokinetic analyses were done in the pharmacokinetic population (defined as all participants who received at least one dose of IBI362 and had at least one valid plasma concentration assessment). Pharmacodynamic analyses were done in the pharmacodynamic population (defined as all participants who received at least one dose of the study treatment and had baseline and at least one valid assessment). Efficacy analyses were done in the efficacy population (defined as all participants who received at least one dose of the study treatment and had at least one post-baseline assessment).
# [1] = 3.0 mg cohort (1.0-2.0-3.0 mg sc once weekly, 4 weeks each), n = 8
# [2] = 4.5 mg cohort (1.5-3.0-4.5 mg sc once weekly, 4 weeks each), n = 8
# [3] = 6.0 mg cohort (2.0-4.0-6.0 mg sc once weekly, 4 weeks each), n = 8
structure (smiles),measurement,setting,value
CC(C)C[C@H](NC(=O)[C@H](CC(C)C)NC(=O)[C@H](Cc1c[nH]c2ccccc12)NC(=O)[C@H](CCC(=O)O)NC(=O)[C@@H](NC(=O)[C@H](Cc1ccccc1)NC(=O)[C@H](CCC(=O)O)NC(=O)[C@H](CCCCNC(=O)COCCOCCNC(=O)COCCOCCNC(=O)CC[C@H](NC(=O)CCCCCCCCCCCCCCCCCCC(=O)O)C(=O)O)NC(=O)[C@H](C)NC(=O)[C@H](CCCCN)NC(=O)[C@H](CCCCN)NC(=O)[C@H](CCC(=O)O)NC(=O)[C@H](CC(=O)O)NC(=O)[C@H](CC(C)C)NC(=O)[C@H](Cc1ccc(O)cc1)NC(=O)[C@H](CCCCN)NC(=O)[C@H](CO)NC(=O)[C@H](Cc1ccc(O)cc1)NC(=O)[C@H](CC(=O)O)NC(=O)[C@H](CO)NC(=O)[C@@H](NC(=O)[C@H](Cc1ccccc1)NC(=O)[C@@H](NC(=O)CNC(=O)[C@H](CCC(N)=O)NC(=O)C(C)(C)NC(=O)[C@@H](N)Cc1c[nH]cn1)[C@@H](C)O)[C@@H](C)O)C(C)C)C(=O)N[C@@H](CCC(=O)O)C(=O)NCC(=O)NCC(=O)N1CCC[C@H]1C(=O)N[C@@H](CO)C(=O)N[C@@H](CO)C(=O)NCC(N)=O [IBI362],Abdominal distension,[1],1 (12.5) n (%)
same,Abdominal pain,[1],0 n (%)
same,Atrioventricular block first degree,[1],1 (12.5) n (%)
same,Back pain,[1],1 (12.5) n (%)
same,Blood glucose increased,[1],0 n (%)
same,Calculus urinary,[1],1 (12.5) n (%)
same,Cardiac disorders (system organ class),[1],1 (12.5) n (%)
same,Constipation,[1],1 (12.5) n (%)
same,Decreased appetite,[1],1 (12.5) n (%)
same,Diarrhea,[1],0 n (%)
same,Dry mouth,[1],0 n (%)
same,Dyslipidaemia,[1],0 n (%)
same,Dysmenorrhoea,[1],1 (12.5) n (%)
same,Dyspepsia,[1],0 n (%)
same,Fatigue,[1],0 n (%)
same,Folliculitis,[1],0 n (%)
same,"Gastrointestinal AE, Mild",[1],2 (25.0) n (%)
same,"Gastrointestinal AE, Moderate",[1],1 (12.5) n (%)
same,Gastrointestinal disorders (system organ class),[1],4 (50.0) n (%)
same,Gastrointestinal inflammation,[1],1 (12.5) n (%)
same,General disorders and administration site conditions (system organ class),[1],1 (12.5) n (%)
same,Hiccups,[1],0 n (%)
same,Hyperlipidaemia,[1],0 n (%)
same,Hyperuricaemia,[1],0 n (%)
same,Hypoglycaemia event,[1],0 n (%)
same,Infections and infestations (system organ class),[1],4 (50.0) n (%)
same,"Injury, poisoning and procedural complications (system organ class)",[1],1 (12.5) n (%)
same,Investigations (system organ class),[1],0 n (%)
same,Menstruation irregular,[1],0 n (%)
same,Mental fatigue,[1],0 n (%)
same,Metabolism and nutrition disorders (system organ class),[1],1 (12.5) n (%)
same,Mouth ulceration,[1],1 (12.5) n (%)
same,Musculoskeletal and connective tissue disorders (system organ class),[1],1 (12.5) n (%)
same,Myocardial ischemia,[1],0 n (%)
same,Nasopharyngitis,[1],1 (12.5) n (%)
same,Nausea,[1],0 n (%)
same,Neutrophil count increased,[1],0 n (%)
same,Oropharyngeal pain,[1],0 n (%)
same,Proteinuria,[1],0 n (%)
same,Psychiatric disorders (system organ class),[1],0 n (%)
same,Pyrexia,[1],1 (12.5) n (%)
same,Renal and urinary disorders (system organ class),[1],1 (12.5) n (%)
same,Reproductive system and breast disorders (system organ class),[1],1 (12.5) n (%)
same,"Respiratory, thoracic and mediastinal disorders (system organ class)",[1],0 n (%)
same,Serious adverse event,[1],0 n (%)
same,Sinus tachycardia,[1],0 n (%)
same,Skin and subcutaneous tissue disorders (system organ class),[1],1 (12.5) n (%)
same,Soft tissue injury,[1],1 (12.5) n (%)
same,Starvation,[1],0 n (%)
same,TEAE (individuals with ≥ 1 TEAE),[1],6 (75.0) n (%)
same,Thermal burn,[1],0 n (%)
same,Tonsillitis,[1],1 (12.5) n (%)
same,Treatment-related AE,[1],3 (37.5) n (%)
same,Upper respiratory tract infection,[1],2 (25.0) n (%)
same,Urticaria,[1],1 (12.5) n (%)
same,Vomiting,[1],1 (12.5) n (%)
same,White blood cell count increased,[1],0 n (%)
same,Abdominal distension,[2],0 n (%)
same,Abdominal pain,[2],2 (25.0) n (%)
same,Atrioventricular block first degree,[2],0 n (%)
same,Back pain,[2],0 n (%)
same,Blood glucose increased,[2],0 n (%)
same,Calculus urinary,[2],0 n (%)
same,Cardiac disorders (system organ class),[2],2 (25.0) n (%)
same,Constipation,[2],0 n (%)
same,Decreased appetite,[2],5 (62.5) n (%)
same,Diarrhea,[2],3 (37.5) n (%)
same,Dry mouth,[2],2 (25.0) n (%)
same,Dyslipidaemia,[2],1 (12.5) n (%)
same,Dysmenorrhoea,[2],0 n (%)
same,Dyspepsia,[2],0 n (%)
same,Fatigue,[2],1 (12.5) n (%)
same,Folliculitis,[2],0 n (%)
same,Gastrointestinal AE,[2],5 (62.5) n (%)
same,"Gastrointestinal AE, Mild",[2],5 (62.5) n (%)
same,"Gastrointestinal AE, Moderate",[2],0 n (%)
same,Gastrointestinal disorders (system organ class),[2],5 (62.5) n (%)
same,Gastrointestinal inflammation,[2],0 n (%)
same,General disorders and administration site conditions (system organ class),[2],1 (12.5) n (%)
same,Hiccups,[2],0 n (%)
same,Hyperlipidaemia,[2],0 n (%)
same,Hyperuricaemia,[2],1 (12.5) n (%)
same,Hypoglycaemia event,[2],0 n (%)
same,Infections and infestations (system organ class),[2],2 (25.0) n (%)
same,"Injury, poisoning and procedural complications (system organ class)",[2],1 (12.5) n (%)
same,Investigations (system organ class),[2],1 (12.5) n (%)
same,Menstruation irregular,[2],0 n (%)
same,Mental fatigue,[2],1 (12.5) n (%)
same,Metabolism and nutrition disorders (system organ class),[2],6 (75.0) n (%)
same,Mouth ulceration,[2],0 n (%)
same,Musculoskeletal and connective tissue disorders (system organ class),[2],0 n (%)
same,Myocardial ischemia,[2],1 (12.5) n (%)
same,Nasopharyngitis,[2],0 n (%)
same,Nausea,[2],3 (37.5) n (%)
same,Neutrophil count increased,[2],1 (12.5) n (%)
same,Oropharyngeal pain,[2],1 (12.5) n (%)
same,Proteinuria,[2],2 (25.0) n (%)
same,Psychiatric disorders (system organ class),[2],1 (12.5) n (%)
same,Pyrexia,[2],0 n (%)
same,Renal and urinary disorders (system organ class),[2],2 (25.0) n (%)
same,Reproductive system and breast disorders (system organ class),[2],0 n (%)
same,"Respiratory, thoracic and mediastinal disorders (system organ class)",[2],1 (12.5) n (%)
same,Serious adverse event,[2],0 n (%)
same,Sinus tachycardia,[2],1 (12.5) n (%)
same,Skin and subcutaneous tissue disorders (system organ class),[2],0 n (%)
same,Soft tissue injury,[2],0 n (%)
same,Starvation,[2],0 n (%)
same,TEAE (individuals with ≥ 1 TEAE),[2],7 (87.5) n (%)
same,Thermal burn,[2],1 (12.5) n (%)
same,Tonsillitis,[2],0 n (%)
same,Treatment-related AE,[2],7 (87.5) n (%)
same,Upper respiratory tract infection,[2],2 (25.0) n (%)
same,Urticaria,[2],0 n (%)
same,Vomiting,[2],0 n (%)
same,White blood cell count increased,[2],1 (12.5) n (%)
same,Abdominal distension,[3],0 n (%)
same,Abdominal pain,[3],0 n (%)
same,Atrioventricular block first degree,[3],0 n (%)
same,Back pain,[3],0 n (%)
same,Blood glucose increased,[3],0 n (%)
same,Calculus urinary,[3],0 n (%)
same,Cardiac disorders (system organ class),[3],0 n (%)
same,Constipation,[3],0 n (%)
same,Decreased appetite,[3],1 (12.5) n (%)
same,Diarrhea,[3],3 (37.5) n (%)
same,Dry mouth,[3],0 n (%)
same,Dyslipidaemia,[3],0 n (%)
same,Dysmenorrhoea,[3],0 n (%)
same,Dyspepsia,[3],1 (12.5) n (%)
same,Fatigue,[3],0 n (%)
same,Folliculitis,[3],1 (12.5) n (%)
same,Gastrointestinal AE,[3],4 (50.0) n (%)
same,"Gastrointestinal AE, Mild",[3],3 (37.5) n (%)
same,"Gastrointestinal AE, Moderate",[3],1 (12.5) n (%)
same,Gastrointestinal disorders (system organ class),[3],4 (50.0) n (%)
same,Gastrointestinal inflammation,[3],0 n (%)
same,General disorders and administration site conditions (system organ class),[3],0 n (%)
same,Hiccups,[3],1 (12.5) n (%)
same,Hyperlipidaemia,[3],0 n (%)
same,Hyperuricaemia,[3],1 (12.5) n (%)
same,Hypoglycaemia event,[3],0 n (%)
same,Infections and infestations (system organ class),[3],1 (12.5) n (%)
same,"Injury, poisoning and procedural complications (system organ class)",[3],0 n (%)
same,Investigations (system organ class),[3],0 n (%)
same,Menstruation irregular,[3],0 n (%)
same,Mental fatigue,[3],0 n (%)
same,Metabolism and nutrition disorders (system organ class),[3],3 (37.5) n (%)
same,Mouth ulceration,[3],0 n (%)
same,Musculoskeletal and connective tissue disorders (system organ class),[3],0 n (%)
same,Myocardial ischemia,[3],0 n (%)
same,Nasopharyngitis,[3],0 n (%)
same,Nausea,[3],1 (12.5) n (%)
same,Neutrophil count increased,[3],0 n (%)
same,Oropharyngeal pain,[3],0 n (%)
same,Proteinuria,[3],0 n (%)
same,Psychiatric disorders (system organ class),[3],0 n (%)
same,Pyrexia,[3],0 n (%)
same,Renal and urinary disorders (system organ class),[3],0 n (%)
same,Reproductive system and breast disorders (system organ class),[3],0 n (%)
same,"Respiratory, thoracic and mediastinal disorders (system organ class)",[3],1 (12.5) n (%)
same,Serious adverse event,[3],0 n (%)
same,Sinus tachycardia,[3],0 n (%)
same,Skin and subcutaneous tissue disorders (system organ class),[3],0 n (%)
same,Soft tissue injury,[3],0 n (%)
same,Starvation,[3],1 (12.5) n (%)
same,TEAE (individuals with ≥ 1 TEAE),[3],6 (75.0) n (%)
same,Thermal burn,[3],0 n (%)
same,Tonsillitis,[3],0 n (%)
same,Treatment-related AE,[3],5 (62.5) n (%)
same,Upper respiratory tract infection,[3],0 n (%)
same,Urticaria,[3],0 n (%)
same,Vomiting,[3],1 (12.5) n (%)
same,White blood cell count increased,[3],0 n (%)
same,Magnitude of heart rate increase,"12-lead ECG, first 6 weeks, more prominent later, especially 6.0 mg cohort, declining from week 9 (Fig. S3)",mild
same,"Amylase, lipase and calcitonin levels",all IBI362 treatment groups (Fig S4),increased in all IBI362 treatment groups but remained mostly within the normal reference range
same,Discontinuation of the study due to safety reason,all cohorts,No participant discontinued the study due to safety reason
same,Hypoglycaemia event or serious adverse event,all cohorts,No hypoglycaemia event or serious adverse event occurred
same,Investigator suspected pancreatitis,all cohorts,No investigator suspected pancreatitis was reported
same,Participants with at least one TEAE,"all participants receiving IBI362 (n = 24), 19 participants",79.2%
same,Nausea,"all participants receiving IBI362 (n = 24), four participants",16.7%
same,Decreased appetite,"all participants receiving IBI362 (n = 24), seven participants",29.2%
same,Diarrhea,"all participants receiving IBI362 (n = 24), six participants",25.0%
